The subject of the data set is probiotic bacterial strains indicated in Table 1 with the numbers 17, 22, 41, 60, 74, 98, 121, 145, 174 and 182. Nature of the data set: toxicity test of raw materials with the method of the invention (plate count, % mortality). Format: cell-based. The conditions noted are these: raw material test; strains 17, 22, 41, 60, 74, 98, 121, 145, 174 and 182 of Table 1 as toxicity markers.

Protocol: The method comprises a step in which the probiotic bacterial strain (toxicity marker) is placed in contact with a raw material to be tested using a quantity of raw material equal to that normally used in the formulation.
In practical terms, a first sample is prepared which comprises the probiotic bacterial strain (toxicity marker), the optimal culture substrate for said probiotic bacterial strain and the raw material to be tested.
Then a second sample (internal reference) is prepared which comprises the same probiotic bacterial strain used in said first sample (toxicity marker) and only the optimal culture substrate (without the raw material to be tested). […]
The ratio between the bacterial count (number of cells counted on the plate) of said first sample and the bacterial count (number of cells on the plate) of said second sample provides a number less than 1, which, if expressed as a percentage, provides a count of the bacteria which survived in contact with the raw material and, therefore, also expresses the % mortality induced by said raw material in the probiotic bacterial strains used as a marker. […]
8.11 incubate the plates upside down at 37±1° C. for 72 h under anaerobic conditions (Gas-Pak+anaerobic kit). […] The result will be expressed as CFU, i.e. Colony Forming Units. […]

`O=C(O)CC(O)(CC(=O)O)C(=O)O` [Citric Acid] gave a mortality found of 2%.
